Assay results taken from publication PMC8080662 (Scientific Reports, 2021).

Key:
[1] = molecular target: PLK-1 (Caenorhabditis elegans, UniProt P34331); assay: in vitro radiometric kinase assay ([γ-32P]ATP, GST-LMN-1 head substrate); assay type: biochemical
[2] = molecular target: LET-23 (Caenorhabditis elegans, UniProt P24348); assay: continuous enzyme-coupled kinase assay on lipid vesicles, percent inhibition; assay type: biochemical
LET-23, sequence (P24348 866-1191): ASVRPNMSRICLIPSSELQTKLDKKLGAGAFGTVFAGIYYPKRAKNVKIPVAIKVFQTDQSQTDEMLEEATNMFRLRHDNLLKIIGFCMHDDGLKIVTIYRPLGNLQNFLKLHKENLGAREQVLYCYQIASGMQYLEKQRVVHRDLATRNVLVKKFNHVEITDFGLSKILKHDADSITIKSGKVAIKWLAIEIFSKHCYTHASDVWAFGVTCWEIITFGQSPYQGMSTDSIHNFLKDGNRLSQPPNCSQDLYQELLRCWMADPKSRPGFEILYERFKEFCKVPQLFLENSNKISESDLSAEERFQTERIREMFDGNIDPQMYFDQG

PLK-1, sequence (P34331 whole entry): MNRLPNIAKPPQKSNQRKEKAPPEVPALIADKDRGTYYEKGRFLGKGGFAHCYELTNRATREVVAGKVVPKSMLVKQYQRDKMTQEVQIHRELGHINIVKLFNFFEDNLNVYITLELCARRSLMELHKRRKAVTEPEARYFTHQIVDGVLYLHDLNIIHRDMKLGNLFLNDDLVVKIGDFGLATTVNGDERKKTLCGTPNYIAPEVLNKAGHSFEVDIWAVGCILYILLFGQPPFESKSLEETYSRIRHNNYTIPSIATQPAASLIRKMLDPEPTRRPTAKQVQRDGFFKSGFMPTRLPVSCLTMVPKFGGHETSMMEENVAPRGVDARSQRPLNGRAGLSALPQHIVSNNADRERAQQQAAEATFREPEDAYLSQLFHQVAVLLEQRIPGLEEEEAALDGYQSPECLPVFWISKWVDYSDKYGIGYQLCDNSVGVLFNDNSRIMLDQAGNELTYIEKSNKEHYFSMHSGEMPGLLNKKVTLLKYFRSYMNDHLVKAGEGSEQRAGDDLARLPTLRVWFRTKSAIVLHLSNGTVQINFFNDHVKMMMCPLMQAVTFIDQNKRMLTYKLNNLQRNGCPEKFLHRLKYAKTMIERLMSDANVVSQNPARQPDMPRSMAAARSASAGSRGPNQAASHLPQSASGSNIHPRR

## C[C@@H](Oc1cc(-n2cnc3cc(-c4ccncc4)ccc32)sc1C(N)=O)c1ccccc1Cl [GSK479719A]
[1]
  IC50: 0.039 µM

## [O-][S+]1CCN(Cc2ccc(-c3ccc4ncnc(Nc5ccc(OCc6ccccc6)c(Cl)c5)c4c3)o2)CC1 [GW583373A]
[2]
  continuous enzyme-coupled kinase assay on lipid vesicles, percent inhibition: The ATOP and 4AQ scaffold compounds tested were able to inhibit LET-23 kinase activity

## CS(=O)(=O)CCNCc1ccc(-c2ccc3ncnc(Nc4ccc(OCc5cccc(F)c5)c(C(F)(F)F)c4)c3c2)o1 [GW576484X]
[2]
  continuous enzyme-coupled kinase assay on lipid vesicles, percent inhibition: The ATOP and 4AQ scaffold compounds tested were able to inhibit LET-23 kinase activity

## C[C@@H](Oc1cc(-n2cnc3ccc(-c4ccncc4)cc32)sc1C(N)=O)c1ccccc1Cl [GSK483724A]
[1]
  IC50: 0.091 µM
